Our source for the Ki values is BindingDB's records for doi:10.1021/jm060561m (Purdue University, 2006).

Molecules are shown by their SMILES.

The assay has as its target T1, Dimer of Gag-Pol polyprotein [501-599,Q508K,L534I,L564I,C568A,C596A] (Human immunodeficiency virus 1, UniProt P03367, C568A/C596A/L534I/L564I/Q508K).
T1 construct: 501-599
Put plainly: Protease Inhibition Assay. As to conditions: pH 6.4; 25 °C. The procedure: The Ki values were determined by substrate cleavage assay using fluorogenic substrate, 2-(aminobenzoyl)-Thr-Ile-Nle-Phe(p-NO2)-Gln-Arg-NH2. A standard curve relating changes in fluorescent intensity to changes in concentration of product was used to convert fluorescent changes into molar velocities. The amount of cleavage was determined by HPLC.

Turning to `CC(C)CN(C[C@@H](O)[C@H](Cc1ccccc1)NC(=O)O[C@@H]1C[C@@H]2CCO[C@@H]2C1)S(=O)(=O)c1ccc(N)cc1` [(3aS,5R,6aR)-hexahydro-2H-cyclopenta[b]furan-5-yl N-[(2S,3R)-4-[(4-aminobenzene)(2-methylpropyl)sulfonamido]-3-hydroxy-1-phenylbutan-2-yl]carbamate], affinity was put at a Ki of 0.14 nM. On to `CC(C)CN(C[C@@H](O)[C@H](Cc1ccccc1)NC(=O)O[C@H]1C[C@H]2CCC[C@H]2C1)S(=O)(=O)c1ccc(CO)cc1` [(2R,3aR,6aS)-octahydropentalen-2-yl N-[(2S,3R)-3-hydroxy-4-{[4-(hydroxymethyl)benzene](2-methylpropyl)sulfonamido}-1-phenylbutan-2-yl]carbamate], for which the affinity corresponds to a Ki of 5.3 nM.
